The values below are quoted from earlier work in patent US20080004230A1, “SAM Riboswitch and Uses Thereof” (priority 2006, published 2008).

Like-named read-outs stand apart in the source and are kept apart here.

The target in series [1] is SAM-I riboswitch RNA (yitJ homolog from B. subtilis). The settings on record: read-out: binding affinity of the analog for the riboswitch RNA.
The next series has as its system SAM-I riboswitch. Conditions: binding preference of the riboswitch, SAM relative to SAH.

As to `Nc1ncnc2c1ncn2[C@@H]1O[C@H](CSC[C@H](N)C(=O)O)[C@@H](O)[C@H]1O` [SAC, S-adenosylcysteine], the Kd in series [1] (analog with one less side chain methylene group) is roughly 30 µM.
Take `Nc1ncnc2c1ncn2[C@@H]1O[C@H](CSCC[C@H](N)C(=O)O)[C@@H](O)[C@H]1O` [SAH, S-adenosylhomocysteine]: the Kd in series [1] is 0.4 µM.
For the compound `C[S+](CC[C@H](N)C(=O)O)C[C@H]1O[C@@H](n2cnc3c(N)ncnc32)[C@H](O)[C@@H]1O` (stereo partly drawn) [SAM, S-adenosylmethionine], in the series on SAM-I riboswitch, the “preference for SAM over SAH” value was 100 fold.
